Measurements taken from ChEMBL document CHEMBL1133113, “Fast calculation of molecular polar surface area as a sum of fragment-based contributions and its application to the prediction of drug transport properties” (J Med Chem, 2000).

Experiment: Percent of drug absorbed by human intestine after oral administration
Format: ADME, organism-based
Settings: in vivo

With `C=CCc1ccccc1OCC(O)CNC(C)C` (centres undefined) [ALPRENOLOL] as the molecule, how does the Fa read?
The Fa was 96%.

Which Fa does the source give for `Cc1cc(=O)n(-c2ccccc2)n1C` [ANTIPYRINE] here?
The Fa was 97%.

With `O=C(O)P(=O)(O)O` [FOSCARNET] as the molecule, how does the Fa read?
The Fa was 17%.

With `OC[C@H]1O[C@@H](O[C@@H]2[C@@H](CO)O[C@](O)(CO)[C@H]2O)[C@H](O)[C@@H](O)[C@H]1O` [LACTULOSE] as the molecule, how does the Fa read?
The Fa was 0.6%.

For `OC[C@@H](O)[C@@H](O)[C@H](O)[C@H](O)CO` [MANNITOL], which Fa is on record?
Its Fa is 26%.

For `Cc1ccccc1N1C(=O)c2cc(S(N)(=O)=O)c(Cl)cc2NC1C` (centres undefined) [METOLAZONE], which Fa is on record?
Its Fa is 64%.

With `O=C(O)c1cc(/N=N/c2ccc(O)c(C(=O)O)c2)ccc1O` [OLSALAZINE] as the molecule, how does the Fa read?
Its Fa is 2.3%.

Which Fa does the source give for `C=CCOc1ccccc1OCC(O)CNC(C)C` (centres undefined) [OXPRENOLOL] here?
Its Fa is 97%.

Which Fa does the source give for `CC(C)NCC(O)COc1cccc2[nH]ccc12` (centres undefined) [PINDOLOL] here?
Its Fa is 92%.

Which Fa does the source give for `CC(=O)Nc1ccc(OCC(O)CNC(C)C)cc1` (centres undefined) [PRACTOLOL] here?
Its Fa is 95%.

For `OC[C@H]1O[C@H](OC[C@H]2O[C@H](O[C@]3(CO)O[C@H](CO)[C@@H](O)[C@@H]3O)[C@H](O)[C@@H](O)[C@@H]2O)[C@H](O)[C@@H](O)[C@H]1O` [RAFFINOSE], which Fa is on record?
The Fa was 0.3%.

Which Fa does the source give for `O=C(O)c1cc(/N=N/c2ccc(S(=O)(=O)Nc3ccccn3)cc2)ccc1O` [SULFASALAZINE] here?
The Fa was 12%.

With `CCN1CCCC1CNC(=O)c1cc(S(N)(=O)=O)ccc1OC` (centres undefined) [SULPIRIDE] as the molecule, how does the Fa read?
Its Fa is 36%.

For `NC[C@H]1CC[C@H](C(=O)O)CC1` [TRANEXAMIC ACID], which Fa is on record?
The Fa was 55%.
